Laboratory results from article PMC8550792, “Evolution of kinase polypharmacology across HSP90 drug discovery” (Cell Chemical Biology, 2021).

Columns and labels:
Experiment in all cases: biochemical
Format in all cases: biochemical
[1] = target: T1, 382 unique human kinases (Homo sapiens, UniProt O75582); conditions: kinase MSK1/RPS6KA5, compound 10 uM; for remaining activity at 10 µM: read-out: % Enzyme Activity (relative to DMSO controls)
T1 construct: purchased Reaction Biology (HotSpot contract assay)

[2] = target: T2, 382 unique human kinases (Homo sapiens, UniProt P07949, A883F); conditions: kinase RET (A883F), compound 10 uM; for remaining activity at 10 µM: read-out: % Enzyme Activity (relative to DMSO controls)
T2 construct: purchased Reaction Biology (HotSpot contract assay)

[3] = target: T3, 382 unique human kinases (Homo sapiens, UniProt P22607); conditions: FGFR3, 10 uM; for remaining activity at 10 µM: read-out: % Enzyme Activity (relative to DMSO controls)
T3 construct: purchased Reaction Biology (HotSpot contract assay)

[4] = target: T4, 382 unique human kinases (Homo sapiens, UniProt P22607, V555M); conditions: FGFR3 (V555M), 10 uM; for remaining activity at 10 µM: read-out: % Enzyme Activity (relative to DMSO controls)
T4 construct: purchased Reaction Biology (HotSpot contract assay)

[5] = target: T5, 382 unique human kinases (Homo sapiens, UniProt P48730); conditions: CK1d, 10 uM; for remaining activity at 10 µM: read-out: % Enzyme Activity (relative to DMSO controls)
T5 construct: purchased Reaction Biology (HotSpot contract assay)

[6] = target: T6, 382 unique human kinases (Homo sapiens, UniProt Q07002); conditions: CDK18/cyclin Y (PCTK3), compound at 10 uM, duplicate values; for remaining activity at 10 µM: read-out: % Enzyme Activity (relative to DMSO controls)
T6 construct: purchased Reaction Biology (HotSpot contract assay)

[7] = target: T7, 382 unique human kinases (Homo sapiens, UniProt Q9NY57); conditions: kinase STK32B/YANK2, compound 10 uM; for remaining activity at 10 µM: read-out: % Enzyme Activity (relative to DMSO controls)
T7 construct: purchased Reaction Biology (HotSpot contract assay)

[8] = target: T8, 382 unique human kinases (Homo sapiens, UniProt O95382); conditions: MEKK6, 10 uM; for remaining activity at 10 µM: read-out: % Enzyme Activity (relative to DMSO controls)
T8 construct: purchased Reaction Biology (HotSpot contract assay)
T8 sequence (O95382 1-1288): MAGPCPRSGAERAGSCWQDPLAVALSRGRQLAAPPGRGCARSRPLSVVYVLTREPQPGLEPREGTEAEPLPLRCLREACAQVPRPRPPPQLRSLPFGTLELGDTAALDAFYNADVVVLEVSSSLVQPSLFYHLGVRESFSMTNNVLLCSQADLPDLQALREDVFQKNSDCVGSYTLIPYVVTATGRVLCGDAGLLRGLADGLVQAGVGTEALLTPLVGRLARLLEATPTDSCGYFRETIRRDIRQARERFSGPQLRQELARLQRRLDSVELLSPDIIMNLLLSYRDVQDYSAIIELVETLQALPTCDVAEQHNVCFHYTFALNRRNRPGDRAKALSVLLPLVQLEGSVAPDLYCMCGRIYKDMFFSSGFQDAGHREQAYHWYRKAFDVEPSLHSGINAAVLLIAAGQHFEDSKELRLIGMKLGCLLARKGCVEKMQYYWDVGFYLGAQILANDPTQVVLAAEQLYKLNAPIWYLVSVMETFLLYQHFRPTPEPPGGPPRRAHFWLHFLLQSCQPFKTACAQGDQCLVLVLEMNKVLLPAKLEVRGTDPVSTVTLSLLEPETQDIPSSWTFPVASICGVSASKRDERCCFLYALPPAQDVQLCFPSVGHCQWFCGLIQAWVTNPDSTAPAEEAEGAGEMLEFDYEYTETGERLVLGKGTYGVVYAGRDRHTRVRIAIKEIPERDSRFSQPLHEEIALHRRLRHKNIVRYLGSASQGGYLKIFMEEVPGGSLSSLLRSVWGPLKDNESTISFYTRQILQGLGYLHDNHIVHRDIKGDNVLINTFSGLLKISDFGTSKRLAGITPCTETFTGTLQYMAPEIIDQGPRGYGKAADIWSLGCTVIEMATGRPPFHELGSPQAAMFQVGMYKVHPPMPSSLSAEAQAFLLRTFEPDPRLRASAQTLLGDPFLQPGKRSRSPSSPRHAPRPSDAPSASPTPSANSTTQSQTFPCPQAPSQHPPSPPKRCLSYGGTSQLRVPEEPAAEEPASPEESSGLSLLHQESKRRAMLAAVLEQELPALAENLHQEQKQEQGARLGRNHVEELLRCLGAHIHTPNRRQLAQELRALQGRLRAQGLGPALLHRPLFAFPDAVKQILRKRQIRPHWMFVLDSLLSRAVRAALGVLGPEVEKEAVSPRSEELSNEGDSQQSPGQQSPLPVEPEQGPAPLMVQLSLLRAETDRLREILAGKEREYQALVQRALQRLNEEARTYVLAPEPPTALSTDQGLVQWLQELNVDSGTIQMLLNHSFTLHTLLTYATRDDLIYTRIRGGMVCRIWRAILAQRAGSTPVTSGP

[9] = target: T9, 382 unique human kinases (Homo sapiens, UniProt P00519); conditions: ABL1, [ATP] 40 µM
T9 construct: purchased Reaction Biology (HotSpot contract assay)

[10] = target: T10, 382 unique human kinases (Homo sapiens, UniProt P00519, F317I); conditions: ABL1 (F317I), [ATP] 5 µM, compound 10 uM; for remaining activity at 10 µM: read-out: % Enzyme Activity (relative to DMSO controls)
T10 construct: purchased Reaction Biology (HotSpot contract assay)

[11] = target: T11, 382 unique human kinases (Homo sapiens, UniProt Q96RG2); conditions: PASK, [ATP] 50 µM
T11 construct: purchased Reaction Biology (HotSpot contract assay)

[12] = compound 10 uM, read-out: % Enzyme Activity (relative to DMSO controls)
[13] = compound 1 uM, read-out: % Enzyme Activity (relative to DMSO controls)

T2 sequence (P07949 29-1114 A883F): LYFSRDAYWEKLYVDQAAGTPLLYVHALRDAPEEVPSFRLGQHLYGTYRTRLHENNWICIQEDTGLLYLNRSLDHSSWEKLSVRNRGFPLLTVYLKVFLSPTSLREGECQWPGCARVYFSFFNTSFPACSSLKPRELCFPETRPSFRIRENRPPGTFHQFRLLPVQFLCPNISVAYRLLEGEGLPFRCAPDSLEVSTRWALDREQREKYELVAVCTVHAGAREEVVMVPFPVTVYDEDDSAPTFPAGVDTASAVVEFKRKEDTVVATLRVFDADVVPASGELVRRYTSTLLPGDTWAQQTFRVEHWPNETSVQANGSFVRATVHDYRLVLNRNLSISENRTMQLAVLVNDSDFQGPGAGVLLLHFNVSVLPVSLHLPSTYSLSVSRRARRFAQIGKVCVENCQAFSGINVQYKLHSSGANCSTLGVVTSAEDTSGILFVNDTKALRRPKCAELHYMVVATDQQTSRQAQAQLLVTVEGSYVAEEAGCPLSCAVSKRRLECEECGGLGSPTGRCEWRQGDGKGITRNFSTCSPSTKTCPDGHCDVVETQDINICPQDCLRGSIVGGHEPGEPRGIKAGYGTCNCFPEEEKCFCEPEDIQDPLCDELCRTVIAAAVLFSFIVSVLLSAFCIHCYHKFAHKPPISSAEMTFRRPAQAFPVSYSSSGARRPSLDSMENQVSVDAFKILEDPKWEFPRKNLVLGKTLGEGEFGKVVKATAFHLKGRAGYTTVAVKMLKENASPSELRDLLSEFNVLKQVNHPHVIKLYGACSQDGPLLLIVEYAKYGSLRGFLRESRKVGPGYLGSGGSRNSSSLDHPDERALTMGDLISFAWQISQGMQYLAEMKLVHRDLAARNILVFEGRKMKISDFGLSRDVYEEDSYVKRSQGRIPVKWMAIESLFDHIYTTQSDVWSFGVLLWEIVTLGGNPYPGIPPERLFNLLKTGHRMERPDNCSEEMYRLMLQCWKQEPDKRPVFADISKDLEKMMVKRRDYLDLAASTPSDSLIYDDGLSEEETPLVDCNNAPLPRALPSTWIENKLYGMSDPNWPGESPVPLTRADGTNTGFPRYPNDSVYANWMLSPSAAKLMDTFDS
T9 sequence (P00519 whole entry): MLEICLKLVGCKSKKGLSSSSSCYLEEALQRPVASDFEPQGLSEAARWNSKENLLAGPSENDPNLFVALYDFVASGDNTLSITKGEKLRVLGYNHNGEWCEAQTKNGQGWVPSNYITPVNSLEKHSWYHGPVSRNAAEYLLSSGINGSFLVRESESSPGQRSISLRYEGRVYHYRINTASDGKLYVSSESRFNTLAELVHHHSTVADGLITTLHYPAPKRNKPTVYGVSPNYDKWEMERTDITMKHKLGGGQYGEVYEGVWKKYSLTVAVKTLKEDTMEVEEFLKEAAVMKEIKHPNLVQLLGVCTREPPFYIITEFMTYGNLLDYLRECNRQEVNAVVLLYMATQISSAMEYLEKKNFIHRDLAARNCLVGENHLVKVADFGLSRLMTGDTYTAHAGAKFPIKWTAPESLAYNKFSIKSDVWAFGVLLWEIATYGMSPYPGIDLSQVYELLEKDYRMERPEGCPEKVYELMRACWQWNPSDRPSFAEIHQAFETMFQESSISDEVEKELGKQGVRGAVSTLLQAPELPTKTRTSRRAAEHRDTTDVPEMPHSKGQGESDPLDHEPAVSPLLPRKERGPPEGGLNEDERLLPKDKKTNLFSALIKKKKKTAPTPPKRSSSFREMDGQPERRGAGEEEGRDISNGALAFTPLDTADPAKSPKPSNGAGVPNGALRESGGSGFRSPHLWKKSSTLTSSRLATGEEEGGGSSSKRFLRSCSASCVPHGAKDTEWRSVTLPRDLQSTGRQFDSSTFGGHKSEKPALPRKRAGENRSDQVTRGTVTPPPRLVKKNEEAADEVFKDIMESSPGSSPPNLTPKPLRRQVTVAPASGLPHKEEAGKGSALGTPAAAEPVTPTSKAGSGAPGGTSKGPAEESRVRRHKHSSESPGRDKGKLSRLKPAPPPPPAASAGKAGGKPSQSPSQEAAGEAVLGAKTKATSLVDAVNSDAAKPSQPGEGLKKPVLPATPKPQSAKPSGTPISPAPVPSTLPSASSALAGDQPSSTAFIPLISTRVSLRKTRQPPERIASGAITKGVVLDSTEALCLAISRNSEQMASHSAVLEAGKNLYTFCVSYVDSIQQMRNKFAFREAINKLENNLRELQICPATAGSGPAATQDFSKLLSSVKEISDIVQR
T3 sequence (P22607 23-806): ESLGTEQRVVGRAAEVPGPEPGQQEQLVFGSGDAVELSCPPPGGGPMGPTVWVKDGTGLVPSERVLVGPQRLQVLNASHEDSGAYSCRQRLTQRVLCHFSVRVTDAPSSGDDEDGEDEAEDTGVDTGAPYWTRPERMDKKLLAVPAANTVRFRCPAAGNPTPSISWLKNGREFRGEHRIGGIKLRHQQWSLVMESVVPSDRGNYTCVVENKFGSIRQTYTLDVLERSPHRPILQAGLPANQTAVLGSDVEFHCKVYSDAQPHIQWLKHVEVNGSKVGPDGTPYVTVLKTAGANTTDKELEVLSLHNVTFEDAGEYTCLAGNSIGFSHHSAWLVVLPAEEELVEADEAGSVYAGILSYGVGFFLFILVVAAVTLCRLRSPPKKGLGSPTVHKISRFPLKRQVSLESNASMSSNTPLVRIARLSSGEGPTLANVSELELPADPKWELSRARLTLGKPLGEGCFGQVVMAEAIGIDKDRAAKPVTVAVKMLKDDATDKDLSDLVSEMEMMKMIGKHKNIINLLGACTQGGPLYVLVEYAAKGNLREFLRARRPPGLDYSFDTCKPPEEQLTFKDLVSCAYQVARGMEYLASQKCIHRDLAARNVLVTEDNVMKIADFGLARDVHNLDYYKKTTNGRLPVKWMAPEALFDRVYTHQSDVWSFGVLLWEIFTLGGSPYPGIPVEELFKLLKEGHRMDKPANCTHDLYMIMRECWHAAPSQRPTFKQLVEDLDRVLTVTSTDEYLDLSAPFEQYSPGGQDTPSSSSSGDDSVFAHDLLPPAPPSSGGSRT
T6 sequence (Q07002 whole entry): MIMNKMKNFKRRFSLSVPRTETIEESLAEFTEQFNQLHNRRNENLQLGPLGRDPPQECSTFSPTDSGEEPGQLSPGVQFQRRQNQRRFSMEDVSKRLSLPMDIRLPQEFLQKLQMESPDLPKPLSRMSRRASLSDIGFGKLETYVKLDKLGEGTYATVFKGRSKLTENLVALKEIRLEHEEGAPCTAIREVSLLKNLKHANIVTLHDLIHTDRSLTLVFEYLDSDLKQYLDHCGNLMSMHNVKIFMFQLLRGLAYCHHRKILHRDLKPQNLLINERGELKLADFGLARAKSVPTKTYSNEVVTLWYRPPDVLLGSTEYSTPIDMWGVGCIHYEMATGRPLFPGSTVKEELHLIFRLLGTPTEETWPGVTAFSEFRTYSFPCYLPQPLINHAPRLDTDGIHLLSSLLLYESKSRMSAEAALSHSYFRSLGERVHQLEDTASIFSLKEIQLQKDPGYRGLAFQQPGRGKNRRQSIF
T1 sequence (O75582 whole entry): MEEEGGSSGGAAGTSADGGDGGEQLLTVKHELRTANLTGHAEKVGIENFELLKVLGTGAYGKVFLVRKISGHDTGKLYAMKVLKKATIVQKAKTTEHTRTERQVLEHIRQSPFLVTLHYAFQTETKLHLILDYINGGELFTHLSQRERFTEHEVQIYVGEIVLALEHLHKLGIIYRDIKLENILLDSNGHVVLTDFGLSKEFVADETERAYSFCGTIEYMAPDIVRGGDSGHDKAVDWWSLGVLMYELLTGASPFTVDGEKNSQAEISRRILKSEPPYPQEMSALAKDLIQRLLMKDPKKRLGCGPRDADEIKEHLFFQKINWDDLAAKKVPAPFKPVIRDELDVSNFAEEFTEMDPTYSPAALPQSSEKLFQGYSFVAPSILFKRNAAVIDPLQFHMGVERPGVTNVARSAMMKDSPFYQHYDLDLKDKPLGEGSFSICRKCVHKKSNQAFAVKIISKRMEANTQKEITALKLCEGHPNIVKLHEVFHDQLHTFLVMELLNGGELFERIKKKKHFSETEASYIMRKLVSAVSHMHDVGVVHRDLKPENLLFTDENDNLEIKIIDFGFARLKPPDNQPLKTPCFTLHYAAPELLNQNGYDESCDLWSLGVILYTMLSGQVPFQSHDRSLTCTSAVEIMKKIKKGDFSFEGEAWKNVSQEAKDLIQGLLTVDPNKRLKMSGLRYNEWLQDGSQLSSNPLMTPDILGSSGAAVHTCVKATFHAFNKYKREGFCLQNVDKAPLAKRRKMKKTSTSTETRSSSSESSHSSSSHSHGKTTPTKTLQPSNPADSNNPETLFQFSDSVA
T5 sequence (P48730 whole entry): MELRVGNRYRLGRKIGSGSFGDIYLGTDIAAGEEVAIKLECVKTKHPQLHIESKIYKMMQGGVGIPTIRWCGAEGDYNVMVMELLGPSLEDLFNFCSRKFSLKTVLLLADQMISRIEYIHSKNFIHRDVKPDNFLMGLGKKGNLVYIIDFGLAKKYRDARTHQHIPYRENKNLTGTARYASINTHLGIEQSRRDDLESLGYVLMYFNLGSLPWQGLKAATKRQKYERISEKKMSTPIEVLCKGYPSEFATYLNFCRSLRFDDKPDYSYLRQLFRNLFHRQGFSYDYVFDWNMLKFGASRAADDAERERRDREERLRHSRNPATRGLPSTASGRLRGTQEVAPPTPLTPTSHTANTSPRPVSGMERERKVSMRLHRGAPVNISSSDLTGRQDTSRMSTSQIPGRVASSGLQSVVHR
T10 sequence (P00519 whole entry F317I): as the sequence (P00519 whole entry) above, with F317I counted along it
T4 sequence (P22607 23-806 V555M): as the sequence (P22607 23-806) above, with V533M counted along it

SMILES | remaining activity at 10 µM [1] | remaining activity at 10 µM [2] | remaining activity at 10 µM [3] | remaining activity at 10 µM [4] | remaining activity at 10 µM [5] | remaining activity at 10 µM [6] | remaining activity at 10 µM [7] | remaining activity at 10 µM [8] | remaining activity at 10 µM [10] | remaining activity at 10 µM [11, 12] | further results
CC(C)c1cc(-c2n[nH]c(=O)n2-c2ccc3c(ccn3C)c2)c(O)cc1O [Ganetespib (STA9090)] | 81% | 83.7% | 62.6% | 65.2% | 81.2% | 107% | 107% | – | – | – | –
CCNC(=O)c1noc(-c2cc(C(C)C)c(O)cc2O)c1-c1ccc(CN2CCOCC2)cc1 [Luminespib] | – | – | – | – | – | – | – | 96% | 25.7% | 99% | % Enzyme Activity (relative to DMSO controls) [8]: 94.49%; % Enzyme Activity (relative to DMSO controls) ([9]; compound 10 uM): 6.22%; remaining activity at 10 µM [9, 12]: 6.93%; % Enzyme Activity (relative to DMSO controls) [10]: 24.59%; % Enzyme Activity (relative to DMSO controls) ([11]; compound 10 uM): 98.65%
CCNC(=O)c1noc(-c2cc(C(C)C)c(O)cc2O)c1-c1ccc(CN2CCOCC2)cc1 [Luminespib (AUY-922)] | 111% | 96.4% | 97.2% | 125% | 83.5% | 111% | 88.8% | – | – | – | % Enzyme Activity (relative to DMSO controls) [1]: 109.40%; % Enzyme Activity (relative to DMSO controls) [2]: 95.34%; % Enzyme Activity (relative to DMSO controls) [3]: 96.41%; % Enzyme Activity (relative to DMSO controls) [4]: 124.56%; % Enzyme Activity (relative to DMSO controls) [5]: 81.12%; % Enzyme Activity (relative to DMSO controls) [6]: 109.58%; % Enzyme Activity (relative to DMSO controls) [7]: 88.50%
CC(C)c1cc(-c2n[nH]c(=O)n2-c2ccc3c(ccn3C)c2)c(O)cc1O [Ganetespib] | – | – | – | – | – | – | – | 94.2% | 2.88% | 12.1% | remaining activity at 1 µM [9, 13]: 18.3%; remaining activity at 1 µM [11, 13]: 49.7%
